Experimental data from patent publication US20250326748A1, “COMPOUNDS AND METHODS FOR MODULATING SPLICING” (REMIX THERAPEUTICS INC., priority 2022, published 2025).
Read-outs that look alike come from different tables or passages of the source.

Tests used:
MYB mRNA = experiment: Splicing RT-qPCR assay, MYB canonical (CJ) and alternative (AJ) junction mRNA; format: cell-based, human; details: Homo sapiens; for IC50: canonical junction mRNA; for AC50: alternative junction mRNA, read-out: MYB AJ (AC50, increase in AJ mRNA)
In short: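 A673 or K562 cells were treated for 24 h at 37 °C with an 11-point 3-fold compound dilution series (top final 10 uM, DMSO ≤0.25%). Lysates then went to one-step TaqMan RT-qPCR quantifying canonical (CJ) and alternative-exon (AJ) junction transcripts, normalized to a housekeeping gene.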

Target C mRNA = experiment: Splicing RT-qPCR panel, Target C canonical junction (CJ) mRNA; format: cell-based, human; details: Homo sapiens, read-out: Target C CJ (decrease in CJ mRNA levels, IC50)
In short: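 A673 cells (DMEM, 10% FBS) or K562 cells (IMDM, 10% FBS) treated 24 h at 37 °C with an 11-point 3-fold dilution, top 10 uM, DMSO ≤0.25%. Canonical-junction mRNA quantified in lysates by RT-qPCR, normalised to GAPDH, GUSB or PPIA and to DMSO (2^−ΔΔCt), then converted to % response.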

[1] = qPCR panel, read-out: MYB CJ (decrease in CJ mRNA levels, IC50)
[2] = RT-qPCR, A673 or K562 cells, 24 hours treatment
[3] = RT-qPCR, A673 or K562 cells, 24 hours treatment, read-out: MYB CJ (IC50, decrease in CJ mRNA)

SMILES | IC50 (MYB mRNA; [1]) | AC50 (MYB mRNA; [2]) | IC50 (MYB mRNA; [3]) | IC50 (Target C mRNA)
CC1CN(c2cnc3nc(-c4cc(F)c5nn(C)cc5c4)cc(Cl)c3c2)CCN1 (stereo not shown) [Compound 203, 4-chloro-2-(7-fluoro-2-methyl-2H-indazol-5-yl)-6-(3-methylpiperazin-1-yl)-1,8-naphthyridine 2,2,2-trifluoroacetate] | 0.1 to 1 µM | < 0.1 µM | 0.1 to 1 µM | 1 to 10 µM
C[C@@H]1CN(c2cnc3nc(-c4cc(F)c5nn(C)cc5c4)cc(Cl)c3c2)C[C@H](C)N1 [Compound 215] | 0.1 to 1 µM | 0.1 to 1 µM | 0.1 to 1 µM | 1 to 10 µM
CNC1CCN(c2cnc3nc(-c4cc5cn(C)nc5c(C)c4O)nc(OC)c3c2)C1 (stereo not shown) [Compound 161, 5-{4-methoxy-6-[3-(methylamino)pyrrolidin-1-yl]pyrido[2,3-d]pyrimidin-2-yl}-2,7-dimethylindazol-6-ol] | < 0.1 µM | < 0.1 µM | < 0.1 µM | 1 to 10 µM
C[C@H]1CN(c2cnc3nc(-c4cc(F)c5nn(C)cc5c4)cc(Cl)c3c2)C[C@H](C)N1 [Compound 250] | < 0.1 µM | < 0.1 µM | < 0.1 µM | 0.1 to 1 µM
Cn1cc2cc(-c3cc(Cl)c4cc(N5CCNCC5)cnc4n3)c(O)cc2n1 [Compound 102, 5-[4-chloro-6-(piperazin-1-yl)-1,8-naphthyridin-2-yl]-2-methylindazol-6-ol] | < 0.1 µM | < 0.1 µM | < 0.1 µM | 1 to 10 µM
C[C@@H]1CN(c2cnc3nc(-c4cc(F)c5nn(C)cc5c4)cc(Cl)c3c2)C[C@@H](C)N1 [Compound 251] | 0.1 to 1 µM | 0.1 to 1 µM | 0.1 to 1 µM | > 10 µM
CN[C@@H]1CCN(c2cnc3nc(-c4cc5cn(C)nc5c(F)c4O)cc(Cl)c3c2)C1 [Compound 271] | < 0.1 µM | < 0.1 µM | < 0.1 µM | < 0.1 µM
Cn1cc2cc(-c3cnc4cc(N5CCC(NC6CC6)C5)ccc4n3)c(O)c(F)c2n1 (stereo not shown) [Compound 175, 5-[6-[3-(cyclopropylamino)pyrrolidin-1-yl]quinoxalin-2-yl]-7-fluoro-2-methyl-indazol-6-ol] | < 0.1 µM | < 0.1 µM | < 0.1 µM | 0.1 to 1 µM
Cc1c(O)c(-c2ncc3cc(N4CC[C@H](N)C4)cnc3n2)cc2cn(C)nc12 [Compound 160, (S)-5-(6-(3-aminopyrrolidin-1-yl)pyrido[2,3-d]pyrimidin-2-yl)-2,7-dimethyl-2H-indazol-6-ol 2,2,2-trifluoroacetate] | < 0.1 µM | < 0.1 µM | < 0.1 µM | 1 to 10 µM
Cn1cc2cc(-c3cc(Cl)c4cc(N5CCNC(C6CC6)C5)cnc4n3)cc(F)c2n1 (stereo not shown) [Compound 209, 4-chloro-6-(3-cyclopropylpiperazin-1-yl)-2-(7-fluoro-2-methylindazol-5-yl)-1,8-naphthyridine] | 0.1 to 1 µM | 0.1 to 1 µM | 0.1 to 1 µM | 1 to 10 µM
Cc1c(O)c(-c2ccc3nc(N4CCNCC4)cnc3n2)cc2cn(C)nc12 [Compound 197, 2,7-dimethyl-5-[2-(piperazin-1-yl)pyrido[2,3-b]pyrazin-6-yl]indazol-6-ol] | 0.1 to 1 µM | 0.1 to 1 µM | 0.1 to 1 µM | 0.1 to 1 µM
Cn1cc2cc(-c3cnc4cc(N5CC[C@@H](NC6CC6)C5)ccc4n3)c(O)c(F)c2n1 [Compound 177, 5-[6-[(3R)-3-(cyclopropylamino)318quinoxaline-1-yl]318quinoxaline-2-yl]-7-fluoro-2-methyl-indazol-6-ol] | < 0.1 µM | < 0.1 µM | < 0.1 µM | < 0.1 µM
Cc1c(O)c(-c2ccc3nc(N4C[C@@H](C)N[C@@H](C)C4)cnc3n2)cc2cn(C)nc12 [Compound 195, 5-{2-[(3R,5S)-3,5-dimethylpiperazin-1-yl]pyrido[2,3-b]pyrazin-6-yl}-2,7-dimethylindazol-6-ol] | 0.1 to 1 µM | 0.1 to 1 µM | 0.1 to 1 µM | > 10 µM
